Test [1] has as its target glucosylceramide synthase (GCS) (Homo sapiens (Human), UniProt Q16739). In words: Inhibitory activity against GCS (A549 cell lysate enzyme reaction, HPLC fluorescence). It is filed as biochemical. The settings on record: NBD C6-ceramide and UDP-glucose, 37° C. for 90 minutes. The method, then: Ibiglustat, known as a GCS inhibitor, was used as a control.
After the cells attached to the culture dish were washed with phosphate buffered saline (PBS), the cells were scraped off with a cell scraper and then centrifuged (4000 rpm, 3 min, 4° C.) to collect the cells in a 50 ml tube. The cell pellets were suspended in a lysis buffer (50 mM HEPES, pH 7.3, containing 1× the protease/phosphatase inhibitor cocktail), lysed by sonication, and then the lysate was centrifuged (13000 rpm, 10 min, 4° C.). The obtained supernatant was used for the quantitative analysis of proteins. The amount of proteins was measured using the BCA protein assay kit, using bovine serum albumin as a standard.
Enzymatic reactions were initiated by sequentially adding the following reaction materials to a 96 deep-well plate. Thereafter, the enzymatic reactions were performed at 37° C. for 90 minutes.
The enzymatic reactions were stopped by adding 100 μl of chloroform/methanol (2:1, v/v). […] The lower layer (50 μl) was transferred to a new 96 deep-well plate and dried with a reduced concentrator.

Test [2] concerns GM1 production in Jurkat cells. In words: cells. In kind it is cell-based. The settings on record: read-out: IC50.

A word on the IC50: it is the concentration at which inhibition is half-maximal.

With “(S)-quinuclidin-3-yl (2,2-dimethyl-(2,4,5-trifluorophenyl)-2,3-dihydro-1H-inden-1-yl)carbamate [Example 68]”, the values for the concentration for half-maximal inhibition (IC50) in test [1] and in test [2] were 15.2 nM and 91.8 nM, respectively.
